Converted amounts (≈) assume the structure as drawn. Values belong to the compound of their own block, whether it stands above or below them.
How the values were obtained:
[1] = test system: Staphylococcus aureus; test: Antibacterial activity against methicillin-resistant staphylococcus aureus ATCC 43300; format: functional
[2] = test system: Enterococcus faecalis; test: Antibacterial activity against Enterococcus faecalis ATCC 6569; format: functional
[3] = test system: Staphylococcus aureus; test: Antibacterial activity against methicillin susceptible staphylococcus aureus ATCC 29213; format: functional
[4] = test system: Enterococcus faecium; test: Antibacterial activity against Enterococcus faecium ATCC 49452; format: functional
[5] = Half-life in mice; format: ADME, organism-based; details: mouse, in vivo
[6] = Vd in mice; format: ADME, organism-based; details: mouse, in vivo
[7] = Total plasma clearance in mice; format: ADME, organism-based; details: mouse
[8] = test system: Staphylococcus aureus; test: Antibacterial activity against methicillin-resistant staphylococcus aureus ATCC 43300 at 0 % serum; format: functional
[9] = test system: Enterococcus faecalis; test: Antibacterial activity against Enterococcus faecalis ATCC 6569 at 10 % serum; format: functional; details: ATCC 6569, Serum
[10] = test system: Enterococcus faecium; test: Antibacterial activity against Enterococcus faecium ATCC 49452 at 10 % serum; format: functional; details: ATCC 49452, Serum
[11] = test system: Staphylococcus aureus; test: Antibacterial activity against methicillin susceptible staphylococcus aureus ATCC 29213 at 10 % serum; format: functional
[12] = test system: Staphylococcus aureus; test: Antibacterial activity against methicillin-resistant staphylococcus aureus ATCC 43300 at 10 % serum; format: functional
[13] = test system: Enterococcus faecalis; test: Antibacterial activity against Enterococcus faecalis ATCC 6569 at 0 % serum; format: functional
[14] = test system: Enterococcus faecium; test: Antibacterial activity against Enterococcus faecium ATCC 49452 at 0 % serum; format: functional
[15] = test system: Staphylococcus aureus; test: Antibacterial activity against methicillin susceptible staphylococcus aureus ATCC 29213 at 0 % serum; format: functional

SMILES: CCCCCCCCCC(=O)N[C@@H](Cc1c[nH]c2ccccc12)C(=O)N[C@H](CC(N)=O)C(=O)N[C@@H](CCO)C(=O)N[C@@H]1C(=O)NCC(=O)N[C@@H](CCCNC(=O)c2ccccc2N)C(=O)N[C@@H](CC(=O)O)C(=O)N[C@H](C)C(=O)N[C@@H](CC(=O)O)C(=O)NCC(=O)N[C@H](CO)C(=O)N[C@@H]([C@H](C)CC(=O)O)C(=O)N[C@@H](CC(=O)c2ccccc2N)C(=O)O[C@@H]1C
MIC [1]: 0.78 µg/mL (≈ 0.452 µM)
MIC [2]: 3.1 µg/mL (≈ 1.8 µM)
MIC [3]: 1.56 µg/mL (≈ 0.904 µM)
MIC [4]: 12.5 µg/mL (≈ 7.24 µM)

MIC [2]: 3.1 µg/mL (≈ 1.71 µM)
MIC [4]: 12.5 µg/mL (≈ 6.9 µM)
SMILES: CCCCCCCCCC(=O)N[C@@H](Cc1c[nH]c2ccccc12)C(=O)N[C@H](CC(N)=O)C(=O)N[C@@H](CCO)C(=O)N[C@@H]1C(=O)NCC(=O)N[C@@H](CCCNC(=O)C(N)Cc2c[nH]c3ccc(F)cc23)C(=O)N[C@@H](CC(=O)O)C(=O)N[C@H](C)C(=O)N[C@@H](CC(=O)O)C(=O)NCC(=O)N[C@H](CO)C(=O)N[C@@H]([C@H](C)CC(=O)O)C(=O)N[C@@H](CC(=O)c2ccccc2N)C(=O)O[C@@H]1C (stereo not given in full)

MIC [2]: 3.1 µg/mL (≈ 1.78 µM)
MIC [4]: 3.1 µg/mL (≈ 1.78 µM)
SMILES: CCCCCCCCCC(=O)N[C@@H](Cc1c[nH]c2ccccc12)C(=O)N[C@H](CC(N)=O)C(=O)N[C@@H](CCO)C(=O)N[C@@H]1C(=O)NCC(=O)N[C@@H](CCCNC(=O)c2c(N)cccc2F)C(=O)N[C@@H](CC(=O)O)C(=O)N[C@H](C)C(=O)N[C@@H](CC(=O)O)C(=O)NCC(=O)N[C@H](CO)C(=O)N[C@@H]([C@H](C)CC(=O)O)C(=O)N[C@@H](CC(=O)c2ccccc2N)C(=O)O[C@@H]1C

SMILES: CCCCCCCCCC(=O)N[C@@H](Cc1c[nH]c2ccccc12)C(=O)N[C@H](CC(N)=O)C(=O)N[C@@H](CC(=O)O)C(=O)N[C@@H]1C(=O)NCC(=O)N[C@@H](CCCNCc2ccc(-c3ccccc3)cc2)C(=O)N[C@@H](CC(=O)O)C(=O)N[C@H](C)C(=O)N[C@@H](CC(=O)O)C(=O)NCC(=O)N[C@H](CO)C(=O)N[C@@H]([C@H](C)CC(=O)O)C(=O)N[C@@H](CC(=O)c2ccccc2N)C(=O)O[C@@H]1C
half-life [5]: 7.9 h
Vd [6]: 0.107 L/kg
clearance [7]: 0.157 mL/min/kg

SMILES: CCCCCCCCCC(=O)N[C@@H](Cc1c[nH]c2ccccc12)C(=O)N[C@H](CC(N)=O)C(=O)N[C@@H](CCO)C(=O)N[C@@H]1C(=O)NCC(=O)N[C@@H](CCCNC(=O)c2ccccc2)C(=O)N[C@@H](CC(=O)O)C(=O)N[C@H](C)C(=O)N[C@@H](CC(=O)O)C(=O)NCC(=O)N[C@H](CO)C(=O)N[C@@H]([C@H](C)CC(=O)O)C(=O)N[C@@H](CC(=O)c2ccccc2N)C(=O)O[C@@H]1C
MIC [1]: 6.25 µg/mL (≈ 3.65 µM)
MIC [2]: 25 µg/mL (≈ 14.6 µM)
MIC [3]: 12.5 µg/mL (≈ 7.31 µM)
MIC [4]: 25 µg/mL (≈ 14.6 µM)

SMILES: CCCCCCCCCC(=O)N[C@@H](Cc1c[nH]c2ccccc12)C(=O)N[C@H](CC(N)=O)C(=O)N[C@@H](CCO)C(=O)N[C@@H]1C(=O)NCC(=O)N[C@@H](CCCNC(=O)c2ccccc2S(=O)(=O)O)C(=O)N[C@@H](CC(=O)O)C(=O)N[C@H](C)C(=O)N[C@@H](CC(=O)O)C(=O)NCC(=O)N[C@H](CO)C(=O)N[C@@H]([C@H](C)CC(=O)O)C(=O)N[C@@H](CC(=O)c2ccccc2N)C(=O)O[C@@H]1C
MIC [1]: 100 µg/mL (≈ 55.8 µM)
MIC [2]: 100 µg/mL (≈ 55.8 µM)
MIC [3]: 100 µg/mL (≈ 55.8 µM)
MIC [4]: 100 µg/mL (≈ 55.8 µM)

SMILES: CCCCCCCCCC(=O)N[C@@H](Cc1c[nH]c2ccccc12)C(=O)N[C@H](CC(N)=O)C(=O)N[C@@H](CCO)C(=O)N[C@@H]1C(=O)NCC(=O)N[C@@H](CCCNCc2ccc(C(=O)N3CCN(c4ccccc4)CC3)cc2)C(=O)N[C@@H](CC(=O)O)C(=O)N[C@H](C)C(=O)N[C@@H](CC(=O)O)C(=O)NCC(=O)N[C@H](CO)C(=O)N[C@@H]([C@H](C)CC(=O)O)C(=O)N[C@@H](CC(=O)c2ccccc2N)C(=O)O[C@@H]1C
MIC [8]: 0.78 µg/mL (≈ 0.414 µM)
MIC [9]: 6.25 µg/mL (≈ 3.32 µM)
MIC [10]: 6.25 µg/mL (≈ 3.32 µM)
MIC [11]: 1.56 µg/mL (≈ 0.828 µM)
MIC [12]: 1.56 µg/mL (≈ 0.828 µM)
MIC [13]: 3.13 µg/mL (≈ 1.66 µM)
MIC [14]: 6.25 µg/mL (≈ 3.32 µM)
MIC [15]: 0.78 µg/mL (≈ 0.414 µM)

SMILES: CCCCCCCCCC(=O)N[C@@H](Cc1c[nH]c2ccccc12)C(=O)N[C@H](CC(N)=O)C(=O)N[C@@H](CCO)C(=O)N[C@@H]1C(=O)NCC(=O)N[C@@H](CCCNCc2ccc(OCc3ccc(F)cc3)c([N+](=O)[O-])c2)C(=O)N[C@@H](CC(=O)O)C(=O)N[C@H](C)C(=O)N[C@@H](CC(=O)O)C(=O)NCC(=O)N[C@H](CO)C(=O)N[C@@H]([C@H](C)CC(=O)O)C(=O)N[C@@H](CC(=O)c2ccccc2N)C(=O)O[C@@H]1C
MIC [8]: 0.39 µg/mL (≈ 0.209 µM)
MIC [9]: 12.5 µg/mL (≈ 6.7 µM)
MIC [10]: 25 µg/mL (≈ 13.4 µM)
MIC [11]: 6.25 µg/mL (≈ 3.35 µM)
MIC [12]: 3.13 µg/mL (≈ 1.68 µM)
MIC [13]: 0.78 µg/mL (≈ 0.418 µM)
MIC [14]: 1.56 µg/mL (≈ 0.836 µM)
MIC [15]: 0.78 µg/mL (≈ 0.418 µM)
